Measurements published in patent publication US20230035479A1, “METHODS AND COMPOSITIONS FOR REDUCING HAIR GREYING” (President and Fellows of Harvard College, priority 2019, published 2023).
Like-named read-outs stand apart in the source and are kept apart here.

Experiments:
[1] = Fontana-Masson melanin staining; assay type: in vivo, mouse; details: 5 days after RTX injection
Description: They also began to depart from the bulge—some migrated downwards along the hair follicle, and some migrated out into dermis or epidermis (FIG. 4C, D2 and D3). By Day 3, many GFP positive cells had migrated out of the bulge, and by Day 4, many hair follicles had lost all GFP positive cells in the bulge.
(§1) Mouse skin samples were fixed using 4% paraformaldehyde (PFA) for 15 minutes at room temperature, washed 6 times with PBS, and immersed in 30% sucrose overnight at 4° C. Samples were then embedded in OCT (Sakura Finetek). 35˜50 μm sections were fixed in 4% paraformaldehyde (PFA) for 2 minutes and washed with PBS and PBST. Slides were then blocked using blocking buffer (5% donkey serum; 1% BSA, 2% cold water fish gelatin in 0.3% Triton in PBS) for 1 hour at room temperature, followed by staining with primary antibodies overnight at 4° C. and secondary antibody for 4 hours at room temperature. For sympathetic nerve density quantification, 90 μm sections were used. EdU was developed for 1 hour using the Click-It reaction according to manufacturer instructions (Thermo Fisher Scientific). TUNEL assay was performed according to manufacturer instructions (Roche). Fontana—Masson staining was performed according to manufacturer instructions (Market Lab ML7255). […]

[2] = system: Phospho-CREB (a downstream effector of ADRB2); experiment: Phospho-CREB immunofluorescence in hair follicles; assay type: in vivo, mouse; details: 12 hours after RTX injection; not in mature melanocytes
Description: It was then considered whether ADRB2 might mediate the impact of stress on MeSCs.
as §1

[3] = system: melanocyte stem cells (MeSCs); experiment: Apoptosis (active caspase-3, TUNEL) and DNA damage (gamma-H2AX) in MeSCs; assay type: in vivo, mouse
Description: Radiation causes DNA damage in MeSCs, leading to their differentiation within the niche.
(§2) Mouse skin samples were fixed using 4% paraformaldehyde (PFA) for 15 minutes at room temperature, washed 6 times with PBS, and immersed in 30% sucrose overnight at 4° C. Samples were then embedded in OCT (Sakura Finetek). 35˜50 μm sections were fixed in 4% paraformaldehyde (PFA) for 2 minutes and washed with PBS and PBST. Slides were then blocked using blocking buffer (5% donkey serum; 1% BSA, 2% cold water fish gelatin in 0.3% Triton in PBS) for 1 hour at room temperature, followed by staining with primary antibodies overnight at 4° C. and secondary antibody for 4 hours at room temperature. For sympathetic nerve density quantification, 90 μm sections were used. EdU was developed for 1 hour using the Click-It reaction according to manufacturer instructions (Thermo Fisher Scientific). TUNEL assay was performed according to manufacturer instructions (Roche). Fontana—Masson staining was performed according to manufacturer instructions (Market Lab ML7255). Antibodies used: TRP2 (Santa Cruz 10451, 1:800), tyrosine hydroxylase (rabbit, Millipore AB152, 1:1000 or sheep, Millipore AB1542, 1:150-1:300), c-Fos (Abcam, 190289, 1:1000), γ-H2AX (Cell Signaling, 9718, 1:400), phospho-histone H3 (rabbit, Cell Signaling Technology 3377S, 1:500), cleaved caspase 3 (rabbit, Cell Signaling Technology 9664S, 1:400), GFP (rabbit, Abcam ab290, 1:1000 or chicken, Ayes labs GFP-1010, 1:200), CD3 (eBioscience 14-0032-81, 1:800), CD11b (eBioscience 14-0112-81, 1:800), Phospho-CREB (Cell Signaling 9198, 1:800), MITF (Abcam ab12039, 1:400).

[4] = system: C57BL/6J mice; assay type: in vivo, mouse
[5] = system: mature melanocytes; experiment: Differentiated/mature melanocytes and hair bulb cells, immunofluorescence; assay type: in vivo, mouse
Description: Loss of hair pigmentation can be due to defects in melanin synthesis, loss of differentiated melanocytes, or problems in MeSC maintenance. To understand how stress impacts the melanocyte lineage, RTX was injected into mice in anagen, when both MeSCs and differentiated melanocytes were present but located within distinct compartments—MeSCs were near to the bulge while differentiated melanocytes were at the hair bulb (FIG. 1E). […] These differentiated melanocytes continued to generate pigments, and the hair coat remained black (FIGS. 6F-6G). When hair follicles in the RTX-injected animals entered catagen and telogen, many have lost all MeSCs (FIG. 1E, Telo). Subsequently, when the next round of anagen initiated, differentiated melanocytes were not produced to color new hair shafts, and unpigmented hairs emerged (FIG. 1E, 2nd Ana, FIG. 6H). […] In this case, unpigmented hairs appeared as soon as new hairs emerged in the following anagen (FIGS. 7A-7B). […] MeSCs were also lost or reduced in mice subjected to restraint stress or chronic unpredictable stress (FIG. 7C). Since stress depleted MeSCs, the loss of hair pigmentation in all three conditions was permanent (FIG. 7D).
Quiescence is a key feature of many somatic stem cells. Loss of quiescence has been postulated to cause MeSC loss in Bcl2 mutants. To examine if stress alters MeSCs quiescence, RTX or norepinephrine was injected into mice that had entered full anagen, when MeSCs are normally quiescent. A dramatic increase in the number of proliferating MeSCs was seen within 24 hours after RTX or norepinephrine injection—about 50% of MeSCs became positive for Phospho-Histone H3, an M phase marker (FIG. 4B). This number is in sharp contrast to the MeSC proliferation seen in early anagen (˜6%), the only stage when MeSCs proliferate to self-renew (FIG. 11E).
as §2

[6] = system: sympathetic neurons; experiment: c-FOS immunofluorescence in sympathetic ganglia; assay type: in vivo, mouse; details: after RTX injection
[7] = system: melanocyte stem cells (MeSCs); experiment: MeSC proliferation, Phospho-Histone H3 immunofluorescence; details: within 24 hours after injection, full anagen
Description: For RTX injection, mice received injections of RTX (30-100 μg/kg) in the flank for 1-3 days as described previously [15, 16, 51-56]. […] Control mice were treated with the vehicle only. RTX injection was done either in full anagen (P31-P36) or in 1st telogen (P21). […] RTX was given at Anagen VI (P31˜P36).
All images were acquired using a Zeiss LSM 880 confocal microscope or Keyence microscope using ×20 or ×40 magnification lenses. Images are presented as Maximum Intensity Projection images. For colocalization analysis, images are presented as a single Z stack.

## C=C(C)[C@]12C[C@@H](C)[C@@]34O[C@](Cc5ccccc5)(O[C@@H]1[C@@H]3C=C(COC(=O)Cc1ccc(O)c(OC)c1)C[C@]1(O)C(=O)C(C)=C[C@@H]41)O2 [RTX, resiniferatoxin]
[1]
  ectopic pigmentation: ectopic pigmentation could be detected along the hair follicle, epidermis, and dermis
[2]
  Phospho-CREB in MeSCs: marked induction of Phospho-CREB
[3]; before MeSC depletion from the niche, 1 day after injection
  active caspase-3 or TUNEL signals in MeSCs: failed to detect active caspase-3 or TUNEL signals
[3]; following injection
  gamma-H2AX foci (DNA damage) in MeSCs: failure to detect gamma-H2AX foci
[4]; C57BL/6J mice, next hair cycle after RTX injection
  hair greying (unpigmented hairs): many new hairs formed in the next hair cycle following RTX injection became unpigmented
[4]; RTX injection, male and female mice
  extent of hair greying, male vs female: same extent of hair greying in both male and female mice
[4]; RTX into CD11b-DTR mice, myeloid lineages ablated by diphtheria toxin
  white hair formation: still resulted in white hair formation
[4]; RTX into RIPK3 mutant mice
  hair greying: still caused hair greying
[4]; RTX into Rag1 mutant mice lacking T and B cells
  white hair formation: still resulted in white hair formation
[4]; RTX into Tyr-CreER, GR fl/fl mice (MeSC-GR cKO)
  hair greying: still resulted in hair greying
[4]; RTX into adrenalectomized mice
  hair greying: still caused hair greying
[4]; RTX, ADRB2 depleted from MeSCs using Tyr-CreER
  white hair formation: white hairs failed to form
[4]; RTX, ADRB2 depleted from hair follicle stem cells
  hair greying: still resulted in hair greying
[5]; 5 days after RTX injection in anagen
  differentiated melanocytes in the same hair follicle: remained unperturbed
[5]; after injection, full anagen
  proliferation or apoptosis in mature melanocytes: no changes in proliferation or apoptosis
[6]
  c-FOS induction in cell bodies of sympathetic neurons: Robust c-FOS induction
  time at which c-FOS induction diminishes: > 24 h
  time of peak c-FOS induction: 2 to 4 h
  time to c-FOS induction: ≤ 1 h
[7]
  MeSCs positive for Phospho-Histone H3: about 50%
